Where two headings read alike, the source gives them in different places.
Target: T1, human B-Raf (Homo sapiens, UniProt P15056)
T1 construct: Flag; GST; made in house; host or cells: Sf9 insect cells (B-Raf); E. coli (MEK1-GST)
Test: B-Raf Kinase to MEK1 ELISA
Format: biochemical
Details: for inhibition at 10 µM: read-out: % Inhib./10 uM; for % Inhib./10 uM: single point assay
In short: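 Read-out is a DELFIA europium signal from phospho-MEK1 (Ser217/221) antibody after capture of GST-MEK1 (50 nM final) on anti-GST plates. Phosphorylation comes from Sf9-expressed Flag/GST human B-Raf (~20 ng) with ATP/MgCl2, 60 min RT, pH 7.2 MOPS.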

[1] = median, cpd concentrations from 10 μM to 30 nM in half log dilutions, read-out: Median IC50

T1 sequence (P15056 whole entry): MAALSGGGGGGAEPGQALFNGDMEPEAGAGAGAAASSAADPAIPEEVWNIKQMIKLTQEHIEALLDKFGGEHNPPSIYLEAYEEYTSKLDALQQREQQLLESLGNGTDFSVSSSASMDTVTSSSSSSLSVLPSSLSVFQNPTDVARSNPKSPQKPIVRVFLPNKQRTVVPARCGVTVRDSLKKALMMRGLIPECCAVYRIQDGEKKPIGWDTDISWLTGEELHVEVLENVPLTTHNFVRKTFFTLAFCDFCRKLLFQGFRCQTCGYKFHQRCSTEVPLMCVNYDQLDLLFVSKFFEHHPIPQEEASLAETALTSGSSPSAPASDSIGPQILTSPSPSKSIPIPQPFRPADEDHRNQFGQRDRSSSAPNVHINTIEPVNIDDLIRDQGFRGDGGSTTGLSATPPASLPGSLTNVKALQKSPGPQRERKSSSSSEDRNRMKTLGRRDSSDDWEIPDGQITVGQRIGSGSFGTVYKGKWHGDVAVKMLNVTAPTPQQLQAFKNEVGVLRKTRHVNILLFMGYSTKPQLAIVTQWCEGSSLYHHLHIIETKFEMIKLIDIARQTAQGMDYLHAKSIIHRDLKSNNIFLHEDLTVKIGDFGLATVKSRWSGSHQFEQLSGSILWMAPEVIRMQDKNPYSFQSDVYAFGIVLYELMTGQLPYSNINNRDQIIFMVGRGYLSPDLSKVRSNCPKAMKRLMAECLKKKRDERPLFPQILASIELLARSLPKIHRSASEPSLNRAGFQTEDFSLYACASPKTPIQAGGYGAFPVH

IC50 [1] [nM] | inhibition at 10 µM [%] | IC50 [nM] | Structure (SMILES) | % Inhib./10 uM [%]
40 | 97 | – | CN(C)CC(=O)Nc1cccc(-c2cnn3c(-c4cccc(NC(=O)c5cccc(C(F)(F)F)c5)c4)ccnc23)c1 [Example 253, N-[3-(3-{3-[(N,N-dimethylglycyl)amino]phenyl}pyrazolo[1,5-a]pyrimidin-7-yl)phenyl]-3-(trifluoromethyl)benzamide] | –
90 | 82 | – | COCCC(=O)Nc1cccc(-c2cnn3c(-c4cccc(NC(=O)c5cccc(C(F)(F)F)c5)c4)ccnc23)c1 [Example 254, N-[3-(3-{3-[(3-methoxypropanoyl)amino]phenyl}pyrazolo[1,5-a]pyrimidin-7-yl)phenyl]-3-(trifluoromethyl)benzamide] | –
49 | 91 | – | CC(=O)NCC(=O)Nc1cccc(-c2cnn3c(-c4cccc(NC(=O)c5cccc(C(F)(F)F)c5)c4)ccnc23)c1 [Example 255, N-[3-(3-{3-[(N-acetylglycyl)amino]phenyl}pyrazolo[1,5-a]pyrimidin-7-yl)phenyl]-3-(trifluoromethyl)benzamide] | –
122 | 97 | – | O=C(Cc1nnn[nH]1)Nc1cccc(-c2cnn3c(-c4cccc(NC(=O)c5cccc(C(F)(F)F)c5)c4)ccnc23)c1 [Example 256, N-[3-(3-{3-[(1H-tetrazol-5-ylacetyl)amino]phenyl}pyrazolo[1,5-a]pyrimidin-7-yl)phenyl]-3-(trifluoromethyl)benzamide] | –
2060 | 80 | – | CN(CCN)c1cc(-c2cc3nccc(-c4cccc(NC(=O)c5cccc(C(F)(F)F)c5)c4)n3n2)ccn1 [Example 270, N-[3-(2-{2-[(2-aminoethyl)(methyl)amino]pyridin-4-yl}pyrazolo[1,5-a]pyrimidin-7-yl)phenyl]-3-(trifluoromethyl)benzamide] | –
– | 93 | 57 | NC(=O)c1cccc(-c2cnn3c(-c4cccc(NC(=O)c5cccc(C(F)(F)F)c5)c4)ccnc23)c1 [Example 271, N-(3-{3-[3-(aminocarbonyl)phenyl]pyrazolo[1,5-a]pyrimidin-7-yl}phenyl)-3-(trifluoromethyl)benzamide] | –
117 | 92 | – | CN(C)Cc1ccccc1-c1cnn2c(-c3cccc(NC(=O)c4cccc(C(F)(F)F)c4)c3)ccnc12 [Example 272, N-[3-(3-{2-[(dimethylamino)methyl]phenyl}pyrazolo[1,5-a]pyrimidin-7-yl)phenyl]-3-(trifluoromethyl)benzamide] | –
43.8 | 97 | – | CN(C)Cc1cccc(-c2cnn3c(-c4cccc(NC(=O)c5cccc(C(F)(F)F)c5)c4)ccnc23)c1 [Example 273, N-[3-(3-{3-[(dimethylamino)methyl]phenyl}pyrazolo[1,5-a]pyrimidin-7-yl)phenyl]-3-(trifluoromethyl)benzamide] | –
– | 89 | 84 | O=C(Nc1cccc(-c2ccnc3c(-c4cn[nH]c4)cnn23)c1)c1cccc(C(F)(F)F)c1 [Example 275, N-{3-[3-(1H-pyrazol-4-yl)pyrazolo[1,5-a]pyrimidin-7-yl]phenyl}-3-(trifluoromethyl)benzamide] | –
2060 | 58 | – | CC(C)(C)OC(=O)n1cc(-c2cnn3c(-c4cccc(NC(=O)c5cccc(C(F)(F)F)c5)c4)ccnc23)cn1 [Example 276, tert-butyl 4-[7-(3-{[3-(trifluoromethyl)benzoyl]amino}phenyl)pyrazolo[1,5-a]pyrimidin-3-yl]-1H-pyrazole-1-carboxylate] | –
– | 96 | 111 | Nc1ccc(-c2cnn3c(-c4cccc(NC(=O)c5cccc(C(F)(F)F)c5)c4)ccnc23)cn1 [Example 278, N-{3-[3-(6-aminopyridin-3-yl)pyrazolo[1,5-a]pyrimidin-7-yl]phenyl}-3-(trifluoromethyl)benzamide] | –
318 | 76 | – | CN(C)CCc1ccccc1-c1cnn2c(-c3cccc(NC(=O)c4cccc(C(F)(F)F)c4)c3)ccnc12 [Example 280, N-[3-(3-{2-[2-(dimethylamino)ethyl]phenyl}pyrazolo[1,5-a]pyrimidin-7-yl)phenyl]-3-(trifluoromethyl)benzamide] | –
40.7 | 98 | – | CN(C)CCc1cccc(-c2cnn3c(-c4cccc(NC(=O)c5cccc(C(F)(F)F)c5)c4)ccnc23)c1 [Example 281, N-[3-(3-{3-[2-(dimethylamino)ethyl]phenyl}pyrazolo[1,5-a]pyrimidin-7-yl)phenyl]-3-(trifluoromethyl)benzamide] | –
78 | 92 | – | CNc1ccc(-c2cnn3c(-c4cccc(NC(=O)c5cccc(C(F)(F)F)c5)c4)ccnc23)cn1 [Example 284, N-(3-{3-[6-(methylamino)pyridin-3-yl]pyrazolo[1,5-a]pyrimidin-7-yl}phenyl)-3-(trifluoromethyl)benzamide] | –
– | 93 | 82.5 | O=C(Nc1cccc(-c2ccnc3c(-c4ccc(CO)cc4)cnn23)c1)c1cccc(C(F)(F)F)c1 [Example 285, N-(3-{3-[4-(hydroxymethyl)phenyl]pyrazolo[1,5-a]pyrimidin-7-yl}phenyl)-3-(trifluoromethyl)benzamide] | –
– | 77 | 146 | O=C(Nc1cccc(-c2ccnc3c(-c4cccc(CO)c4)cnn23)c1)c1cccc(C(F)(F)F)c1 [Example 286, N-(3-{3-[3-(hydroxymethyl)phenyl]pyrazolo[1,5-a]pyrimidin-7-yl}phenyl)-3-(trifluoromethyl)benzamide] | –

The next lines start with the compound.

Structure (SMILES) | IC50 [1] [nM] | inhibition at 10 µM [%] | IC50 [nM] | % Inhib./10 uM [%]
CN(C)CCCNc1cc(-c2cc3nccc(-c4cccc(NC(=O)c5cccc(C(F)(F)F)c5)c4)n3n2)ccn1 [Example 257, N-{3-[2-(2-{[3-(dimethylamino)propyl]amino}pyridin-4-yl)pyrazolo[1,5-a]pyrimidin-7-yl]phenyl}-3-(trifluoromethyl)benzamide] | 74.5 | 97 | – | –
O=C(Nc1cccc(-c2ccnc3cc(-c4ccnc(NCCCN5CCOCC5)c4)nn23)c1)c1cccc(C(F)(F)F)c1 [Example 258, N-[3-(2-{2-[(3-morpholin-4-ylpropyl)amino]pyridin-4-yl}pyrazolo[1,5-a]pyrimidin-7-yl)phenyl]-3-(trifluoromethyl)benzamide] | – | – | 134 | 95
O=C(Nc1cccc(-c2ccnc3cc(-c4ccnc(NCCCN5CCCCC5)c4)nn23)c1)c1cccc(C(F)(F)F)c1 [Example 259, N-[3-(2-{2-[(3-piperidin-1-ylpropyl)amino]pyridin-4-yl}pyrazolo[1,5-a]pyrimidin-7-yl)phenyl]-3-(trifluoromethyl)benzamide] | 91.4 | 99 | – | –
O=C(Nc1cccc(-c2ccnc3cc(-c4ccnc(NCCCN5CCCC5=O)c4)nn23)c1)c1cccc(C(F)(F)F)c1 [Example 261, N-{3-[2-(2-{[3-(2-oxopyrrolidin-1-yl)propyl]amino}pyridin-4-yl)pyrazolo[1,5-a]pyrimidin-7-yl]phenyl}-3-(trifluoromethyl)benzamide] | – | 94 | 113 | –
O=C(Nc1cccc(-c2ccnc3cc(-c4ccnc(NCCCn5ccnc5)c4)nn23)c1)c1cccc(C(F)(F)F)c1 [Example 262, N-{3-[2-(2-{[3-(1H-imidazol-1-yl)propyl]amino}pyridin-4-yl)pyrazolo[1,5-a]pyrimidin-7-yl]phenyl}-3-(trifluoromethyl)benzamide] | 65.5 | 98 | – | –
O=C(Nc1cccc(-c2ccnc3cc(-c4ccnc(NCCN5CCC(O)CC5)c4)nn23)c1)c1cccc(C(F)(F)F)c1 [Example 263, N-{3-[2-(2-{[2-(4-hydroxypiperidin-1-yl)ethyl]amino}pyridin-4-yl)pyrazolo[1,5-a]pyrimidin-7-yl]phenyl}-3-(trifluoromethyl)benzamide] | – | – | 65.8 | 98
O=C(Nc1cccc(-c2ccnc3cc(-c4ccnc(NCCN5CCCCC5)c4)nn23)c1)c1cccc(C(F)(F)F)c1 [Example 264, N-[3-(2-{2-[(2-piperidin-1-ylethyl)amino]pyridin-4-yl}pyrazolo[1,5-a]pyrimidin-7-yl)phenyl]-3-(trifluoromethyl)benzamide] | 95.8 | 97 | – | –
CN(C)CCNc1cc(-c2cc3nccc(-c4cccc(NC(=O)c5cccc(C(F)(F)F)c5)c4)n3n2)ccn1 [Example 266, N-{3-[2-(2-{[2-(dimethylamino)ethyl]amino}pyridin-4-yl)pyrazolo[1,5-a]pyrimidin-7-yl]phenyl}-3-(trifluoromethyl)benzamide] | – | – | 53.3 | 100
O=C(Nc1cccc(-c2ccnc3cc(-c4ccnc(NCCN5CCNC5=O)c4)nn23)c1)c1cccc(C(F)(F)F)c1 [Example 268, N-{3-[2-(2-{[2-(2-oxoimidazolidin-1-yl)ethyl]amino}pyridin-4-yl)pyrazolo[1,5-a]pyrimidin-7-yl]phenyl}-3-(trifluoromethyl)benzamide] | 110 | 96 | – | –
CN(CCCN)c1cc(-c2cc3nccc(-c4cccc(NC(=O)c5cccc(C(F)(F)F)c5)c4)n3n2)ccn1 [Example 269, N-[3-(2-{2-[(3-aminopropyl)(methyl)amino]pyridin-4-yl}pyrazolo[1,5-a]pyrimidin-7-yl)phenyl]-3-(trifluoromethyl)benzamide] | 2790 | 78 | – | –
CN1CCN(CCCC#Cc2cnn3c(-c4cccc(NC(=O)c5cccc(C(F)(F)F)c5)c4)ccnc23)CC1 [Example 279, N-(3-{3-[5-(4-methylpiperazin-1-yl)pent-1-yn-1-yl]pyrazolo[1,5-a]pyrimidin-7-yl}phenyl)-3-(trifluoromethyl)benzamide] | – | – | 842 | –
O=C(Nc1cccc(-c2ccnc3c(C#CCCCN4CCOCC4)cnn23)c1)c1cccc(C(F)(F)F)c1 [Example 282, N-{3-[3-(5-morpholin-4-ylpent-1-yn-1-yl)pyrazolo[1,5-a]pyrimidin-7-yl]phenyl}-3-(trifluoromethyl)benzamide] | – | 79 | 551 | –

— US20070219186A1, “Pyrazolo[1,5-A]pyrimidine derivatives and methods of use thereof” (priority 2006, published 2007)
